The values below are quoted from earlier work in patent publication US20230414692A1, “ETHANOLIC EXTRACT OF SEEDS OF SOLANUM MELONGENA, METHOD FOR OBTAINING IT, PHARMACEUTICAL COMPOSITION CONTAINING IT AND USE THEREOF AS AN ANTITUMOUR AGENT” (UNIVERSIDAD DE GRANADA, priority 2020, published 2023).

The test system of data set [1] is NIE.115 neuroblastoma cell line. The settings on record: Cohen et al., 1996.
The subject of data set [2] is 143B.TK osteosarcoma cell line. The settings on record: Cohen et al., 1996.

Regarding `C/C=C(/C)C(=O)O[C@H]1C[C@@H](OC(C)=O)[C@@]2(C)CO[C@H]3[C@H]4O[C@@H]5C[C@@H](c6ccoc6)C(C)=C5[C@@]4(C)[C@H](CC(=O)OC)[C@]1(C)[C@@H]32` [Salannin], the half-maximal inhibitory concentration (IC50) (as a rule, the concentration that inhibits the measured activity by half) was 133 ± 6 µM in data set [1] and 89 ± 12 µM in data set [2].
